Data published in patent publication US9370547B2, “Compositions and methods for treating ischemia” (UNIVERSITY OF KENTUCKY RESEARCH FOUNDATION, priority 2014, dated 2016).

Assays:
[1] = tested on: claudin-5 expression in mouse brain endothelial cells; assay: Claudin-5 western blot and immunocytochemistry in brain endothelial cells after OGD; format: cell-based
Method: FIG. 11A includes a claudin-5 western blot of brain endothelial cells after OGD that were treated as labeled.
FIG. 11B includes plot showing the quantification of claudin-5 expression normalized to Ponceau S total protein stain for the samples show in FIG. 11A.
FIG. 11C includes images showing claudin-5 immunocytochemistry of WT mouse brain endothelial cells either just prior to (control) or 24 hours after OGD treated as labeled. Scale bar is 5 μm.

[2] = cited from earlier work
WT mice after MCAo = settings: mouse, in vivo

Row | Substance | claudin-5 levels compared with ATN-161 and normoxic control [1] | serum half-life ([2]; for some subjects) [h] | tissue distribution ([2]; in vivo) | safety of intravenous administration ([2]; intravenous) | animal vital signs upon administration (WT mice after MCAo) | tolerability (signs of illness such as fur ruffling, weight differences) (WT mice after MCAo)
1 | Ac-PhScN—NH2 | more effective than ATN-161 | – | – | – | – | –
2 | Ac-PHSCN-NH2 [ATN-161] | – | 3 to 5 | high tissue distribution | can be safely administered intravenously | did not alter animal vital signs | well tolerated
